According to publication PMC12368479, “Inhibition of the Clathrin Terminal Domain—Amphiphysin Protein–Protein Interaction. Probing the Pitstop 2 Aromatic Moiety” (Chemmedchem, 2025):
Where two headings read alike, the source gives them in different places. Each block holds one compound with its values, some of them ahead of it.

Columns and labels:
[1] = molecular target: T1, clathrin heavy chain NTD (amino acids 1–364) – amphiphysin 1 B/C domain protein–protein interaction (NTD‐PPI) (Homo sapiens, UniProt Q00610); experiment: ELISA-based clathrin inhibitor binding assay (NTD-PPI)
T1 construct: GST‐tagged clathrin heavy chain NTD (amino acids 1–364); made in house
T1 sequence (Q00610 1-364): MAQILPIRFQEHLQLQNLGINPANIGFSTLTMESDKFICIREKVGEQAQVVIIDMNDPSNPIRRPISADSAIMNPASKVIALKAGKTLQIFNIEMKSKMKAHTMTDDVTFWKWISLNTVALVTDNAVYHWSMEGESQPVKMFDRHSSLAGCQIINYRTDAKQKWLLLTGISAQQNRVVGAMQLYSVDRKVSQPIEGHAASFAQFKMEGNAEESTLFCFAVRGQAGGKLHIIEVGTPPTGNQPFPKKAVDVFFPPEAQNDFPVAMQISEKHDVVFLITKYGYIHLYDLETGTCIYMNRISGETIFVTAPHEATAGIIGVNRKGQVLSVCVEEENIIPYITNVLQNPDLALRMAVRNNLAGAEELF
Protocol: The clathrin inhibitor assay was based inhibition of protein–protein interaction (PPI) between clathrin and amphiphysin as described in our previous report.^[ [45], [54] ^] Bacterially expressed recombinant purified His6‐tagged amphiphysin 1 B/C domain (which comprises both the clathrin and the AP‐2 binding sites, amino acids 250‐578^[ [55] ^]) in screening buffer (20 mM HEPES, pH 7.4, 50 mM NaCl, 1 mM DTT, 1 mM PMSF) was added to a 384 well ELISA plate (Corning Maxisorp 3700) and bound to the plastic for 1 h at room temperature. […] Following extensive washes (with 20 mM HEPES, pH 7.4, 50 mM NaCl, 0.05% Tween 20), chemical compounds diluted in DMSO (10 μL) were added and incubated together with bacterially expressed recombinant GST‐tagged clathrin heavy chain NTD (amino acids 1–364) for 1 h at room temperature in screening buffer. After 3 washes, horseradish peroxidase‐coupled anti‐GST antibodies were added in screening buffer and the plate incubated for 40 min at room temperature. Following additional washes, 50 μL TMB (3,3′,5,5′‐tetramethylbenzidine) (Pierce Biotechnology) chromogenic substrate of horseradish peroxidase was added, and the plate was incubated for 10 min before the reaction was terminated by adding 50 μL 1N sulfuric acid to produce a yellow colour. The amount of bound protein was determined by spectrophotometric measurement in a plate reader. Relative binding was calculated as a percentage of DMSO control.

[2] = test system: transferrin uptake (CME) in U2OS osteosarcoma cells; experiment: Clathrin-mediated endocytosis assay: transferrin (Tfn) uptake in U2OS cells; assay type: cell-based; conditions: for inhibition at 5 µM: read-out: 2-point CME (% Inhibition) 5 µM
Protocol: Using our previously reported CME assay in U2OS cells, the ability of these compounds to block endocytosis was examined (Table 5 ).^[ [48], [49] ^]
CME was examined by a high‐throughput, quantitative assay for measuring transferrin (Tfn) uptake in U2OS osteosarcoma cells, based on methods described previously.^[ [48] ^]
Compounds were made up fresh from powder stock just prior to commencing the assay, and stock solutions were stored at −20 °C for several months.

[3] = molecular target: T2, full length human Dynamin I (Homo sapiens, UniProt Q05193); experiment: Dynamin GTPase activity, Malachite Green phosphate detection assay; assay type: biochemical
T2 construct: full length human Dynamin I expressed in Sf21 insect cells; made in house; host or cells: Sf21 insect cells
T2 sequence (Q05193 1-864): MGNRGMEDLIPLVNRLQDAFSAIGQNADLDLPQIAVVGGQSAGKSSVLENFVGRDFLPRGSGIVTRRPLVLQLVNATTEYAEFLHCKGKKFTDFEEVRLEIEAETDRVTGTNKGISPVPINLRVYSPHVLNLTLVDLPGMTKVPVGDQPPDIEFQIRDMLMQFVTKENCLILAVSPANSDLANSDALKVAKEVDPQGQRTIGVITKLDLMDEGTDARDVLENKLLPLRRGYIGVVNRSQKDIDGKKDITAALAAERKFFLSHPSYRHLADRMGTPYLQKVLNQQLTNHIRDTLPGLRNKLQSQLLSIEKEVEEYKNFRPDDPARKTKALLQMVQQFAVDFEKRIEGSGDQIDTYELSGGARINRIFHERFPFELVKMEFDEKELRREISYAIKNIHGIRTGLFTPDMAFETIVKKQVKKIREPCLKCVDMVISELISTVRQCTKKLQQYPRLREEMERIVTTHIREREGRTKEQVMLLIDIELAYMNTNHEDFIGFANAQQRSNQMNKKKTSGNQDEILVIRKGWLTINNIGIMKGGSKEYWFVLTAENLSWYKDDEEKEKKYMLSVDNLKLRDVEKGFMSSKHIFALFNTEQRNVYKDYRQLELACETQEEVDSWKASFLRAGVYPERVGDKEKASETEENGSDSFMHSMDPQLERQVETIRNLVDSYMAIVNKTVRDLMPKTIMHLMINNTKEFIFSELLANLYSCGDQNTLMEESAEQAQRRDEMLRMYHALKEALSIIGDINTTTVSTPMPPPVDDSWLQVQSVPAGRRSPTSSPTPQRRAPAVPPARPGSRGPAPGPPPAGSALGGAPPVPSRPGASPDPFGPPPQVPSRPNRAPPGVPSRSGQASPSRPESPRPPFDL
Protocol: Dynamin GTPase activity was determined in vitro using the Malachite Green phosphate detection absorbance‐based assay within a 96‐well plate format as described previously. The enzyme source was full length human Dynamin I expressed in Sf21 insect cells and affinity‐purified on GST‐Amph2‐SH3 (rat Amphiphysin 2 (494–588)).^[ [56] ^]

[4] = Table 4, library 4, ELISA, average of duplicate measurements (n = 2), read-out: NTD‐PPI IC50
[5] = Table 5, ELISA, read-out: NTD‐PPI IC50
[6] = Homo sapiens, U2OS, Table 5, inhibition of transferrin‐red uptake in U2OS cells, '–'/NA = not active at 100 μM
[7] = Table 4, library 4, n = 1 or n = 2 as footnoted, '–' = not active at 100 μM, read-out: Dynamin 1 IC50
[8] = Table 1, library 1, ELISA, average of duplicate measurements (n=2), read-out: NTD‐PPI IC50
[9] = Table 1, library 1, n = 1 unless noted (19: n = 2), '–' = not active at 150 μM, read-out: Dyn 1 IC50
[10] = Table 2, library 2, ELISA, average of duplicate measurements (n=2), read-out: NTD‐PPI IC50
[11] = Table 2, library 2, n = 3, triplicate, '–' = not active at 100 μM, read-out: Dyn 1 IC50
[12] = Table S1, preliminary (n=1) unless otherwise noted, NA = not active, includes IC50 > 150 μM, read-out: Dynamin 1 IC50

SMILES: O=C1N=C(NS(=O)(=O)c2cccc3ccccc23)S/C1=C\c1ccoc1 [compound 46, (Z)‐N‐(5‐(furan‐3‐ylmethylene)‐4‐oxo‐4,5‐dihydrothiazol‐2‐yl)naphthalene‐1‐sulfonamide]
IC50 [1, 4]: 2.11 µM
IC50 [1, 5]: 2.11 µM
IC50 [2, 6]: 31.5 ± 9.2 µM

SMILES: O=C1N=C(NS(=O)(=O)c2cccc3ccccc23)S/C1=C\c1ccc(CO)o1 [compound 51, (Z)‐N‐(5‐((5‐(hydroxymethyl)furan‐2‐yl)methylene)‐4‐oxo‐4,5‐dihydrothiazol‐2‐yl)naphthalene‐1‐sulfonamide]
NTD‐PPI activity relative to halogenated furans (49, 50) ([1]; ELISA, in words): threefold less active
IC50 [1, 4]: 6.33 µM
IC50 [1, 5]: 6.33 µM
IC50 ([1]; read-out: NTD‐PPI IC50 (ELISA)): 6.3 µM
IC50 [2, 6]: ~156 µM
IC50 ([2]; Homo sapiens, U2OS, U2OS cells): > 50 µM

SMILES: O=C1N=C(NS(=O)(=O)c2cccc3ccccc23)S/C1=C\c1ccsc1 [compound 44, (Z)‐N‐(4‐oxo‐5‐(thiophen‐3‐ylmethylene)‐4,5‐dihydrothiazol‐2‐yl)naphthalene‐1‐sulfonamide]
IC50 [2, 6]: 36.4 ± 13.7 µM

SMILES: O=C1N=C(NS(=O)(=O)c2cccc3ccccc23)S/C1=C\c1cccc(Cl)c1Cl [compound 34, (Z)‐N‐(5‐(2,3‐dichlorobenzylidene)‐4‐oxo‐4,5‐dihydrothiazol‐2‐yl)naphthalene‐1‐sulfonamide]
IC50 [1, 10]: 26.1 µM
IC50 [3, 11]: > 100 µM

SMILES: O=C1N=C(NS(=O)(=O)c2cccc3ccccc23)S/C1=C\c1ccc2nsnc2c1 [compound 58, (Z)‐N‐(5‐(benzo[c][1,2,5]thiadiazol‐5‐ylmethylene)‐4‐oxo‐4,5‐dihydrothiazol‐2‐yl)naphthalene‐1‐sulfonamide]
IC50 [3, 7]: ~69.3 µM
IC50 ([3]; Table 5, dynamin GTPase, n = 1 or n = 2 as footnoted, NA = not active at 100 μM, read-out: Dynamin 1 IC50): ~69.3 µM
IC50 [2, 6]: 16.8 ± 7.9 µM
CME activity compared with Pitstop 2 ([2]; U2OS cells, in words): comparable

SMILES: COc1ccc(/C=C2\SC(NS(=O)(=O)c3cccc4ccccc34)=NC2=O)c(OC)c1 [compound 30, (Z)‐N‐(5‐(2,4‐dimethoxybenzylidene)‐4‐oxo‐4,5‐dihydrothiazol‐2‐yl)naphthalene‐1‐sulfonamide]
IC50 [1, 10]: 1 µM
IC50 [3, 11]: > 100 µM

SMILES: COc1cc(/C=C2\SC(NS(=O)(=O)c3cccc4ccccc34)=NC2=O)cc(OC)c1OC [compound 33, (Z)‐N‐(4‐oxo‐5‐(3,4,5‐trimethoxybenzylidene)‐4,5‐dihydrothiazol‐2‐yl)naphthalene‐1‐sulfonamide]
IC50 [1, 10]: 14.1 µM
IC50 [3, 11]: > 100 µM

SMILES: O=C1N=C(NS(=O)(=O)c2cccc3ccccc23)S/C1=C\c1ccc(Br)o1 [compound 50, (Z)‐N‐(5‐((5‐bromofuran‐2‐yl)methylene)‐4‐oxo‐4,5‐dihydrothiazol‐2‐yl)naphthalene‐1‐sulfonamide]
IC50 [2, 6]: 42.3 ± 25.7 µM

SMILES: O=C1N=C(NS(=O)(=O)c2cccc3ccccc23)S/C1=C\c1ccc(Cl)o1 [compound 49, (Z)‐N‐(5‐((5‐chlorofuran‐2‐yl)methylene)‐4‐oxo‐4,5‐dihydrothiazol‐2‐yl)naphthalene‐1‐sulfonamide]
IC50 [1, 4]: 3.31 µM
IC50 [1, 5]: 3.31 µM
IC50 ([1]; read-out: NTD‐PPI IC50 (ELISA)): 3.3 µM
IC50 [2, 6]: 52.6 ± 9.1 µM
IC50 ([2]; Homo sapiens, U2OS, U2OS cells): > 50 µM

SMILES: O=C1N=C(NS(=O)(=O)c2cccc3ccccc23)S/C1=C\C1CCCC1 [compound 41, (Z)‐N‐(5‐(cyclopentylmethylene)‐4‐oxo‐4,5‐dihydrothiazol‐2‐yl)naphthalene‐1‐sulfonamide]
IC50 ([3]; Table 3, library 3, n = 1 unless otherwise stated (41, 42: n = 2), '–' = not active at 100 μM, read-out: Dynamin 1 IC50): > 100 µM
IC50 [3, 12]: > 150 µM
inhibition at 5 µM ([2]; Homo sapiens, U2OS): 11%

The next lines start with results.

IC50 [3, 7]: 69.3 ± 7.1 µM
IC50 ([3]; values quoted in running text (section 2.2), read-out: Dynamin IC50): 69 µM
SMILES: O=C1N=C(NS(=O)(=O)c2cccc3ccccc23)S/C1=C\C1=Cc2ccccc2OC1 [compound 55, (Z)‐N‐(5‐((2H‐chromen‐3‐yl)methylene)‐4‐oxo‐4,5‐dihydrothiazol‐2‐yl)naphthalene‐1‐sulfonamide]
inhibition at 5 µM ([2]; Homo sapiens, U2OS): 0%
inhibition at 50 µM ([2]; Homo sapiens, U2OS, read-out: 2-point CME (% Inhibition) 50 µM): 40%

IC50 [1, 8]: 2.1 µM
IC50 [3, 9]: > 150 µM
SMILES: O=C1N=C(NS(=O)(=O)c2cccc3ccccc23)S/C1=C\c1ccccc1O [compound 8, (Z)‐N‐(5‐(2‐hydroxybenzylidene)‐4‐oxo‐4,5‐dihydrothiazol‐2‐yl)naphthalene‐1‐sulfonamide]

fold less active (NTD‐PPI) than 25 and 27 ([1]; ELISA, relative to 2,4‐dihydroxyphenyl 25 and 3,4‐dihydroxyphenyl 27): 3 fold
IC50 [1, 10]: 3.9 µM
IC50 [3, 11]: 85 µM
SMILES: O=C1N=C(NS(=O)(=O)c2cccc3ccccc23)S/C1=C\c1cccc(O)c1O [compound 24, (Z)‐N‐(5‐(2,3‐dihydroxybenzylidene)‐4‐oxo‐4,5‐dihydrothiazol‐2‐yl)naphthalene‐1‐sulfonamide]

IC50 [1, 4]: 3 µM
IC50 [1, 5]: 3 µM
IC50 ([1]; read-out: NTD‐PPI IC50 (ELISA)): 33 µM
IC50 [2, 6]: ~108 µM
IC50 ([2]; Homo sapiens, U2OS, U2OS cells): > 50 µM
SMILES: O=C1N=C(NS(=O)(=O)c2cccc3ccccc23)S/C1=C\c1cc[nH]c1 [compound 45, (Z)‐N‐(5‐((1H‐pyrrol‐3‐yl)methylene)‐4‐oxo‐4,5‐dihydrothiazol‐2‐yl)naphthalene‐1‐sulfonamide]

IC50 [3, 7]: > 100 µM
IC50 [3, 12]: > 150 µM
SMILES: O=C1N=C(NS(=O)(=O)c2cccc3ccccc23)S/C1=C\c1c[nH]c2ccc(Cl)cc12 [compound 66, (Z)‐N‐(5‐((5‐chloro‐1H‐indol‐3‐yl)methylene)‐4‐oxo‐4,5‐dihydrothiazol‐2‐yl)naphthalene‐1‐sulfonamide]
inhibition at 5 µM ([2]; Homo sapiens, U2OS): 2%

IC50 [1, 8]: 5.7 µM
IC50 [3, 9]: > 150 µM
SMILES: N#Cc1cccc(/C=C2\SC(NS(=O)(=O)c3cccc4ccccc34)=NC2=O)c1 [compound 12, (Z)‐N‐(5‐(3‐cyanobenzylidene)‐4‐oxo‐4,5‐dihydrothiazol‐2‐yl)naphthalene‐1‐sulfonamide]
